Legend:
[1] = system: primary neuronal cultures; test: Cytosolic calcium imaging of glutamate-exposed neuronal cultures; assay type: cell-based, mouse; conditions: glutamate-exposed neuronal cultures; UNC0642 pre-treated 24 hours; ferrostatin-1 10 min prior to glutamate
Method: (§1) For primary cortical cultures pregnant C57BL/6J, or G9afl/fl;Snap25-Cre mice were euthanized. To ensure comparability between genotypes, only embryos from heterozygous breeding's were used. Brainstem tissue of each embryo for genotyping was reserved and cortices were isolated, dissociated and cells were plated at a density of 1 × 10^5 cells per 1 cm^2 on poly-D-lysine-coated wells (5 µM Sigma-Aldrich, cat. no. A-003-M). If not stated otherwise, cells were maintained in neurobasal plus medium (supplemented with B27 plus, penicillin, streptomycin and L-glutamine; Gibco, cat. no. A3582901) at 37°C, 5% CO^2 and a relative humidity of 98%, and treated with 1 µM cytarabine (Sigma-Aldrich, cat. no. BP383) at 1 day in vitro (div) to inhibit glial cell proliferation. If no cytarabine was applied cells were maintained in PNBM medium (supplemented with neural cell survival factor, gentamycin and L-glutamine; Lonza). Throughout, cultures after 14-23 div were used for experiments. G9a inhibitor UNC0642 was used in a concentration of 1 µM and cultures were pre-treated 24 hours before further experimental procedures.
Primary neuronal cultures were seeded on Ibidi 60 µ-Dish Quad (cat. No. 80411) plates. Cultures were infected with an AAV7 containing pAAV-Syn-GCamp6f-WPRE-SV40 (86) (Addgene 100837) at 7-10 div with a 20,000-fold multiplicity of infection (MOI). AAV particles were produced according to the standard procedures of the UKE vector facility. Images were acquired with a confocal LSM 700 laser scanning confocal microscope (Zeiss) every 0.48 seconds with a 20× magnification in an imaging chamber maintaining 37 °C and 5% CO2. Infected cultures were imaged in the respective culture medium. Before applying the indicated chemicals, 5-10 min of baseline activity was first recorded. At the end of the recording, 8 µM ionomycin was applied to induce the maximum cellular calcium response that was used for normalization. For data analysis, mean fluorescence values of every cell were measured using Fiji software (NIH) and normalized to the maximal calcium response after ionomycin challenge. For each cell, mean AUC of the calcium response was calculated using a custom R script.

G9a = target: T1, G9a (Mus musculus, UniProt Q9Z148); test: H3K9me2 / G9a immunofluorescence staining in primary neuronal cultures; assay type: cell-based; conditions: for induction of H3K9me2 in response to glutamate: primary cortical cultures, glutamate toxicity
T1 construct: UNC0642 pre-treated primary neuronal cultures compared to respective controls; endogenous in cells; host or cells: primary mouse cortical neuronal cultures (C57BL/6J embryos)
T1 sequence (Q9Z148 1-1263): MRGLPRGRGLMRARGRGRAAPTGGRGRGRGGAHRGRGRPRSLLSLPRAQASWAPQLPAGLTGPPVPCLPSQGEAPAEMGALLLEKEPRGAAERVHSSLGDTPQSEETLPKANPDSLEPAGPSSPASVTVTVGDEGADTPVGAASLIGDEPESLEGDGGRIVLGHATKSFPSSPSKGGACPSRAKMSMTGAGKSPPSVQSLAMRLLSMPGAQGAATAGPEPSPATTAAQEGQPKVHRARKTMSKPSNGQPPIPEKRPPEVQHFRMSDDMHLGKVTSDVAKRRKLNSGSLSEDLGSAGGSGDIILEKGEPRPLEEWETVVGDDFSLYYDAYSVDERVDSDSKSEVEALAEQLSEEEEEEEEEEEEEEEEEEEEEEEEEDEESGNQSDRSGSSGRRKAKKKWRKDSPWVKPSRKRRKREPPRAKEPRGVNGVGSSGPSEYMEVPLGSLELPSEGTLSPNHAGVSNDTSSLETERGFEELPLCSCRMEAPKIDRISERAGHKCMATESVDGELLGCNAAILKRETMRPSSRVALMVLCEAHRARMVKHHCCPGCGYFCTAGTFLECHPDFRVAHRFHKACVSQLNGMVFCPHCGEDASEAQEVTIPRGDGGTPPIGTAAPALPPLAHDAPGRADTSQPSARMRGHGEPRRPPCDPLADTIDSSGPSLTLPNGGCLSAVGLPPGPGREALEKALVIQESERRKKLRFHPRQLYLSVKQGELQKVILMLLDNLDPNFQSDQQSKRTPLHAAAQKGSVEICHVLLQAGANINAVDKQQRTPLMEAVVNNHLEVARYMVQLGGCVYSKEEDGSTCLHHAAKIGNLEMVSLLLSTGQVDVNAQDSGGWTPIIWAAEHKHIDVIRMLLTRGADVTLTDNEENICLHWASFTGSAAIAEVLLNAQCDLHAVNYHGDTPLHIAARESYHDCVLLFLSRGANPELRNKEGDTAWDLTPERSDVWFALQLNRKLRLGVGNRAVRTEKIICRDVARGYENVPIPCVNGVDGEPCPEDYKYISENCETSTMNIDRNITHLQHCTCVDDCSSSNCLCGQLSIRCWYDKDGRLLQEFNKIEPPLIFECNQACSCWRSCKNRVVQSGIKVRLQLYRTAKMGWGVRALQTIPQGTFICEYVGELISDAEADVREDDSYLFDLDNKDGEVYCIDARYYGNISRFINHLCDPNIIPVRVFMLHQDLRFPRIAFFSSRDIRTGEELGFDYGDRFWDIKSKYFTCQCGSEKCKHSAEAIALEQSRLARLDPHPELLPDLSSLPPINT
Method: as §1
Immunocytochemistry was performed as described previously (15). HiPSC-neurons and mouse neurons were cultivated on 12 mm diameter cover slips or on 96-well plates suited for confocal microscopy, fixed with 4% paraformaldehyde (PFA), incubated in 10% normal donkey's serum (NDS) containing 0.25% Triton X-100, and subsequently immunolabeling was performed. Immunostainings were analyzed with a Zeiss LSM 700 confocal microscope.

[2] = system: primary cortical cultures; test: RealTime-Glo cell viability assay, glutamate excitotoxicity; assay type: cell-based, mouse; conditions: 20 µM glutamate-stimulated primary cortical cultures; UNC0642 1 µM pre-treated 24 hours
Method: as §1, with “G9a inhibitor UNC0642 was used in a concentration of 1 µM and cultures were pre-treated 24 hours before further experimental procedures.” left out
RealTime-Glo (Promega, cat. no. G9711) MT cell viability substrate and NanoLuc Enzyme was mixed together, added to neuronal cultures and incubated for 5 hours for equilibration of luminescence signal before respective treatments were applied. Luminescence was acquired with a Spark 10M multimode microplate reader (Tecan) at 37°C and 5% CO2 every 30 min over a total time period of 24 hours. […]

Q: `COC1=C(OC)C(=O)C(C/C=C(\C)CC/C=C(\C)CC/C=C(\C)CC/C=C(\C)CC/C=C(\C)CC/C=C(\C)CC/C=C(\C)CC/C=C(\C)CC/C=C(\C)CCC=C(C)C)=C(C)C1=O` [coenzyme Q10] was tested. Which “toxic calcium accumulation (glutamate-induced calcium overload)” value (“toxic calcium accumulation” for short) [1] did it give?
A: rescued glutamate-induced calcium overload

Q: What does the source list for `NC(CCCP(=O)(O)O)C(=O)O` (stereo not shown) [AP5]?
A: induction of H3K9me2 in response to glutamate (G9a): potently suppressed the induction of H3K9me2; cell viability [2]: rescued cellular survival

Q: For `NCCC[C@](N)(C(=O)O)C(F)F` [DFMO, alpha-difluoro-methylornithine], which “toxic calcium accumulation” value [1] is on record?
A: rescued glutamate-induced calcium overload

Q: With `CCOC(=O)c1ccc(NC2CCCCC2)c(N)c1` [ferrostatin-1] as the molecule, how does the “toxic calcium accumulation” value [1] read?
A: rescued glutamate-induced calcium overload

Q: `O=C(O)CN(CCOCCOCCN(CC(=O)O)CC(=O)O)CC(=O)O` [EGTA] was tested. Which “induction of H3K9me2 in response to glutamate” value (G9a) did it give?
A: potently suppressed the induction of H3K9me2

Q: `COC(=O)c1ccc(C2c3[nH]c4ccccc4c3CC(C(=O)OC)N2C(=O)CCl)cc1` (stereo not shown) [RSL3] was tested. Which “H3K9me2 immunofluorescence after cell death induction” value (G9a; primary cortical neurons, inducer alone vs. control) did it give?
A: significant upregulation of H3K9me2
